Laboratory results published in ChEMBL document CHEMBL2311313, “Inhibitors of HIV-1 attachment. Part 11: the discovery and structure-activity relationships associated with 4,6-diazaindole cores” (Bioorg Med Chem Lett, 2013).
Converted amounts (≈) assume the structure as drawn.

Tests used:
[1] = AUC in rat at 5 mg/kg, po; assay type: ADME, organism-based; parameters: dose 5 mg/kg, route oral; settings: plasma
[2] = Clearance in rat at 1 mg/kg, iv; assay type: ADME, organism-based; parameters: dose 1 mg/kg, route intravenous; settings: in vivo
[3] = system: Human immunodeficiency virus 1; test: Antiviral activity against HIV1 JRFL infected in human HeLa cells expressing CD4 and CCR5 after 3 days by luciferase reporter gene assay; assay type: functional, organism-based; settings: Human immunodeficiency virus 1, JRFL, 72 h
[4] = Oral bioavailability in rat at 5 mg/kg; assay type: ADME, organism-based; settings: in vivo
[5] = Cytotoxicity against human HeLa cells expressing CD4 and CCR5 assessed as cell viability after 6 days by XTT assay; assay type: cell-based
[6] = Solubility of the compound in amorphous form at pH 6.5; assay type: physicochemical; settings: buffer
[7] = Therapeutic index, ratio of CC50 for human HeLa cells expressing CD4 and CCR5 to EC50 for HIV1 JRFL infected in human HeLa cells expressing CD4 and CCR5; assay type: cell-based; settings: read-out: Ratio CC50/EC50

Cc1ncn(-c2ncnc3c(C(=O)C(=O)N4CCN(C(=O)c5ccccc5)CC4)c[nH]c23)n1
AUC [1]: 4.9 µM·h
clearance [2]: 7.6 mL/min/kg
EC50 [3]: 0.36 nM
bioavailability [4]: 19%
CC50 at 144 h [5]: > 150000 nM

O=C(C(=O)N1CCN(C(=O)c2ccccc2)CC1)c1c[nH]c2c(-n3nccn3)ncnc12
EC50 [3]: 11 nM
CC50 at 144 h [5]: > 150000 nM

O=C(O)c1ccn(-c2ncnc3c(C(=O)C(=O)N4CCN(C(=O)c5ccccc5)CC4)c[nH]c23)n1
EC50 [3]: 0.76 nM
solubility [6]: 1070 µg/mL (≈ 2260 µM)

O=C(C(=O)N1CCN(C(=O)c2ccccc2)CC1)c1c[nH]c2c(-n3ccc(-c4ccccn4)n3)ncnc12
EC50 [3]: 0.15 nM
solubility [6]: 8 µg/mL (≈ 15.8 µM)

O=C(C(=O)N1CCN(C(=O)c2ccccc2)CC1)c1c[nH]c2c(-n3ccc(-c4ccc(F)cc4)n3)ncnc12
EC50 [3]: < 0.16 nM

O=C(C(=O)N1CCN(C(=O)c2ccccc2)CC1)c1c[nH]c2c(-c3cnccn3)ncnc12
selectivity ratio [7]: > 15000
EC50 [3]: 0.25 nM
CC50 at 144 h [5]: 78000 nM

COc1ccccc1-c1ccn(-c2ncnc3c(C(=O)C(=O)N4CCN(C(=O)c5ccccc5)CC4)c[nH]c23)n1
EC50 [3]: 0.36 nM
solubility [6]: 4 µg/mL (≈ 7.47 µM)

O=C(C(=O)N1CCN(C(=O)c2ccccc2)CC1)c1c[nH]c2c(-c3ccncc3)ncnc12
EC50 [3]: 12 nM
CC50 at 144 h [5]: > 300000 nM

Cc1ccn(-c2ncnc3c(C(=O)C(=O)N4CCN(C(=O)c5ccccc5)CC4)c[nH]c23)n1
AUC [1]: 17.8 µM·h
clearance [2]: 4.8 mL/min/kg
EC50 [3]: 0.15 nM
solubility [6]: 8 µg/mL (≈ 18 µM)
bioavailability [4]: 45%
CC50 at 144 h [5]: > 300000 nM

Cc1cc(-c2ncnc3c(C(=O)C(=O)N4CCN(C(=O)c5ccccc5)CC4)c[nH]c23)on1
EC50 [3]: 0.88 nM
CC50 at 144 h [5]: 177000 nM

O=C(C(=O)N1CCN(C(=O)c2ccccc2)CC1)c1c[nH]c2c(-n3ccc(-c4ccccc4)n3)ncnc12
EC50 [3]: 0.28 nM
solubility [6]: 1 µg/mL (≈ 1.98 µM)

Cc1cnn(-c2ncnc3c(C(=O)C(=O)N4CCN(C(=O)c5ccccc5)CC4)c[nH]c23)c1
EC50 [3]: 1.1 nM
CC50 at 144 h [5]: > 300000 nM

O=C(C(=O)N1CCN(C(=O)c2ccccc2)CC1)c1c[nH]c2c(-c3ccnnc3)ncnc12
EC50 [3]: 5.2 nM
CC50 at 144 h [5]: > 300000 nM

CN1CCN(c2ncnc3c(C(=O)C(=O)N4CCN(C(=O)c5ccccc5)CC4)c[nH]c23)CC1
EC50 [3]: > 5000 nM
CC50 at 144 h [5]: > 300000 nM

O=C(C(=O)N1CCN(C(=O)c2ccccc2)CC1)c1c[nH]c2c(-n3ccc(-c4cccc(C(F)(F)F)c4)n3)ncnc12
EC50 [3]: 0.37 nM
solubility [6]: 60 µg/mL (≈ 105 µM)

CCOc1ncnc2c(C(=O)C(=O)N3CCN(C(=O)c4ccccc4)CC3)c[nH]c12
EC50 [3]: 12 nM
CC50 at 144 h [5]: > 150000 nM

CN(C)C(=O)c1ccn(-c2ncnc3c(C(=O)C(=O)N4CCN(C(=O)c5ccccc5)CC4)c[nH]c23)n1
EC50 [3]: 2 nM

O=C(C(=O)N1CCN(C(=O)c2ccccc2)CC1)c1c[nH]c2c(-c3ccccn3)ncnc12
selectivity ratio [7]: > 15000
EC50 [3]: 0.34 nM
CC50 at 144 h [5]: 6000 nM

O=C(C(=O)N1CCN(C(=O)c2ccccc2)CC1)c1c[nH]c2c(-n3cncn3)ncnc12
AUC [1]: 0.83 µM·h
clearance [2]: 35 mL/min/kg
EC50 [3]: 0.1 nM
bioavailability [4]: 15%
CC50 at 144 h [5]: > 300000 nM

O=C(C(=O)N1CCN(C(=O)c2ccccc2)CC1)c1c[nH]c2c(Cl)ncnc12
EC50 [3]: 11 nM
CC50 at 144 h [5]: > 300000 nM

COc1ncnc2c(C(=O)C(=O)N3CCN(C(=O)c4ccccc4)CC3)c[nH]c12
EC50 [3]: 4.1 nM
CC50 at 144 h [5]: > 300000 nM

CC(=O)c1ncnc2c(C(=O)C(=O)N3CCN(C(=O)c4ccccc4)CC3)c[nH]c12
EC50 [3]: 18 nM
CC50 at 144 h [5]: > 300000 nM

N#Cc1ncnc2c(C(=O)C(=O)N3CCN(C(=O)c4ccccc4)CC3)c[nH]c12
EC50 [3]: 44 nM
CC50 at 144 h [5]: > 300000 nM

CNCCCCNC(=O)c1ccn(-c2ncnc3c(C(=O)C(=O)N4CCN(C(=O)c5ccccc5)CC4)c[nH]c23)n1
EC50 [3]: 4.8 nM
solubility [6]: 1730 µg/mL (≈ 3100 µM)

COc1ccc(-c2ccn(-c3ncnc4c(C(=O)C(=O)N5CCN(C(=O)c6ccccc6)CC5)c[nH]c34)n2)cc1
EC50 [3]: 0.24 nM
solubility [6]: 1 µg/mL (≈ 1.87 µM)

O=C(C(=O)N1CCN(C(=O)c2ccccc2)CC1)c1c[nH]c2c(-c3cncnc3)ncnc12
EC50 [3]: 2.7 nM
CC50 at 144 h [5]: > 300000 nM

O=C(C(=O)N1CCN(C(=O)c2ccccc2)CC1)c1c[nH]c2c(-c3cccnc3)ncnc12
EC50 [3]: 1.3 nM
CC50 at 144 h [5]: > 300000 nM

O=C(C(=O)N1CCN(C(=O)c2ccccc2)CC1)c1c[nH]c2c(-c3cc[nH]n3)ncnc12
EC50 [3]: 0.31 nM
CC50 at 144 h [5]: > 300000 nM
